How the values were obtained:
[1] = biological target: High affinity nerve growth factor receptor (Homo sapiens, UniProt P04629); assay: Selectivity interaction (Kinase panel (literature)) EUB0001199aCl NTRK1; details: at 1 µM
[2] = biological target: Mitogen-activated protein kinase kinase kinase 9 (Homo sapiens) (UniProt P80192); assay: Selectivity interaction (KinomeScan (DiscoverX)) EUB0000666a MAP3K9; details: at 10 µM
[3] = biological target: Serine/threonine-protein kinase 38-like (Homo sapiens) (UniProt Q9Y2H1); assay: Selectivity interaction (KinomeScan (DiscoverX)) EUB0001079a STK38L; details: at 1 µM
[4] = biological target: Cyclin-dependent kinase 2 (Homo sapiens, UniProt P24941); assay: Selectivity interaction (Kinase panel (DSF assay)) EUB0001558a CDK2
[5] = biological target: Phosphorylase b kinase gamma catalytic chain, skeletal muscle/heart isoform (Homo sapiens) (UniProt Q16816); assay: Selectivity interaction (Ambit KINOMEscan and KiNATiv profiling in Jurkat cells) EUB0000090b PHKG1; assay type: cell-based; details: at 1 µM
[6] = biological target: DNA (cytosine-5)-methyltransferase 1 (Homo sapiens) (UniProt P26358); assay: Selectivity interaction (Methyltransferase screen (Scintillation proximity assays)) EUB0000255b DNMT1
[7] = biological target: T1, Dual specificity protein kinase TTK (Homo sapiens) (UniProt P33981); assay: Selectivity interaction (KinomeScan (DiscoverX)) EUB0000045b TTK
T1 sequence (whole entry): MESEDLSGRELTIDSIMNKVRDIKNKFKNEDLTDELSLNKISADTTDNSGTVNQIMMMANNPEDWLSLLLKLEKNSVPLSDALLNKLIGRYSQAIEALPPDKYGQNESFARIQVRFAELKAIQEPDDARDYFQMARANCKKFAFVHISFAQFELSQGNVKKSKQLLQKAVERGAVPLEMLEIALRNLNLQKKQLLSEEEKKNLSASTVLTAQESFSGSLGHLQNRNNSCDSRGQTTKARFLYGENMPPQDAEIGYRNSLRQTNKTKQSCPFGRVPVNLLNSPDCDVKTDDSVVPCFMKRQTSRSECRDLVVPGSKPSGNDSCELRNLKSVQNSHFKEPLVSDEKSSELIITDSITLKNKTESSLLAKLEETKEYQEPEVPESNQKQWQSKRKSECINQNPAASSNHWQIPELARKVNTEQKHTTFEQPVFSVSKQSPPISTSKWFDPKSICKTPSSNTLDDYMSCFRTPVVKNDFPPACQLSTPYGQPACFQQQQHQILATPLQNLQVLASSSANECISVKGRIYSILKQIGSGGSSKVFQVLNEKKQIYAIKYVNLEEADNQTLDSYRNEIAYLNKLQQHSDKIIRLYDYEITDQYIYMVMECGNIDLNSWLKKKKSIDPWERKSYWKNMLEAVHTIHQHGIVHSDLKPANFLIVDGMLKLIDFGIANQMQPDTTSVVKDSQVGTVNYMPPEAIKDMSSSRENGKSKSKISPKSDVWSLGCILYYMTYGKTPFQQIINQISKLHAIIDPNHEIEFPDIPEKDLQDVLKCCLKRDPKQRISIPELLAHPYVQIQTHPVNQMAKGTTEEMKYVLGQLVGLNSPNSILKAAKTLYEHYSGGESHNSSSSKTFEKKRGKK

[8] = biological target: T2, Rhodopsin kinase GRK1 (Homo sapiens) (UniProt Q15835); assay: Selectivity interaction (KinomeScan (DiscoverX)) EUB0000607a GRK1; details: at 10 µM
T2 sequence (whole entry): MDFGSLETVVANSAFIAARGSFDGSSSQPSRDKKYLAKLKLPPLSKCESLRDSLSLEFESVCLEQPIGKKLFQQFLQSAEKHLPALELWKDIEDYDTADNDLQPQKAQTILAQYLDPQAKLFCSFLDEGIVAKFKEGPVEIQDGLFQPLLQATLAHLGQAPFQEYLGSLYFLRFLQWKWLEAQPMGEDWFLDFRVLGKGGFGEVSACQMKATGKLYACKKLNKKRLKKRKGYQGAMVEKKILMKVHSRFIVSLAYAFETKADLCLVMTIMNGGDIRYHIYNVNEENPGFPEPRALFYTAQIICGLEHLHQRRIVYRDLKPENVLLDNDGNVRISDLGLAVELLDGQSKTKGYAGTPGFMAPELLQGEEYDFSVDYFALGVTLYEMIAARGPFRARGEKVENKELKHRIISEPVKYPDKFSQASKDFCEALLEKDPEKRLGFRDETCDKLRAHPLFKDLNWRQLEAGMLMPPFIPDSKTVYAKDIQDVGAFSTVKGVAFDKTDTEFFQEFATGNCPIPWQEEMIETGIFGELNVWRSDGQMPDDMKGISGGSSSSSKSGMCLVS

[9] = biological target: Serine/threonine-protein kinase PLK3 (Homo sapiens, UniProt Q9H4B4); assay: Selectivity interaction (SelectScreen profiling (Invitrogen)) EUB0000607a PLK3; details: at 2 µM
Chain of Serine/threonine-protein kinase PLK3 (Q9H4B4 whole entry, looked up): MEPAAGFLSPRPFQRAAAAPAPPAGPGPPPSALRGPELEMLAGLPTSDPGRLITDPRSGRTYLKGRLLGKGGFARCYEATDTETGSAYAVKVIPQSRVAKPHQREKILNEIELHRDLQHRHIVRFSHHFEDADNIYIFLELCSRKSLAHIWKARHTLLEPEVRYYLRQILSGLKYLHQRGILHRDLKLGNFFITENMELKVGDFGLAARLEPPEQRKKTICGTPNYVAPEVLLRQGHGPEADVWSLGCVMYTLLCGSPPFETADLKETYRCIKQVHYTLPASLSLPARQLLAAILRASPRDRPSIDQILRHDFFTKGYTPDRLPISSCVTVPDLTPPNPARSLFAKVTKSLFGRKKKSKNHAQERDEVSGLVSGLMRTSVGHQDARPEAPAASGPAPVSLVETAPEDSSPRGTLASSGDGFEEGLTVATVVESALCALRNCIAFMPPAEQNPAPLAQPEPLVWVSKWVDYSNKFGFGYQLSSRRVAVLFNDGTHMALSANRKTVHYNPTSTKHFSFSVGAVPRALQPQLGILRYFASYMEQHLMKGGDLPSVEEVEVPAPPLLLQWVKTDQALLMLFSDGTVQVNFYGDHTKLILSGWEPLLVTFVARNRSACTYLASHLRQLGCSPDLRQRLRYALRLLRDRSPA

Chain of DNA (cytosine-5)-methyltransferase 1 (Homo sapiens) (P26358 whole entry): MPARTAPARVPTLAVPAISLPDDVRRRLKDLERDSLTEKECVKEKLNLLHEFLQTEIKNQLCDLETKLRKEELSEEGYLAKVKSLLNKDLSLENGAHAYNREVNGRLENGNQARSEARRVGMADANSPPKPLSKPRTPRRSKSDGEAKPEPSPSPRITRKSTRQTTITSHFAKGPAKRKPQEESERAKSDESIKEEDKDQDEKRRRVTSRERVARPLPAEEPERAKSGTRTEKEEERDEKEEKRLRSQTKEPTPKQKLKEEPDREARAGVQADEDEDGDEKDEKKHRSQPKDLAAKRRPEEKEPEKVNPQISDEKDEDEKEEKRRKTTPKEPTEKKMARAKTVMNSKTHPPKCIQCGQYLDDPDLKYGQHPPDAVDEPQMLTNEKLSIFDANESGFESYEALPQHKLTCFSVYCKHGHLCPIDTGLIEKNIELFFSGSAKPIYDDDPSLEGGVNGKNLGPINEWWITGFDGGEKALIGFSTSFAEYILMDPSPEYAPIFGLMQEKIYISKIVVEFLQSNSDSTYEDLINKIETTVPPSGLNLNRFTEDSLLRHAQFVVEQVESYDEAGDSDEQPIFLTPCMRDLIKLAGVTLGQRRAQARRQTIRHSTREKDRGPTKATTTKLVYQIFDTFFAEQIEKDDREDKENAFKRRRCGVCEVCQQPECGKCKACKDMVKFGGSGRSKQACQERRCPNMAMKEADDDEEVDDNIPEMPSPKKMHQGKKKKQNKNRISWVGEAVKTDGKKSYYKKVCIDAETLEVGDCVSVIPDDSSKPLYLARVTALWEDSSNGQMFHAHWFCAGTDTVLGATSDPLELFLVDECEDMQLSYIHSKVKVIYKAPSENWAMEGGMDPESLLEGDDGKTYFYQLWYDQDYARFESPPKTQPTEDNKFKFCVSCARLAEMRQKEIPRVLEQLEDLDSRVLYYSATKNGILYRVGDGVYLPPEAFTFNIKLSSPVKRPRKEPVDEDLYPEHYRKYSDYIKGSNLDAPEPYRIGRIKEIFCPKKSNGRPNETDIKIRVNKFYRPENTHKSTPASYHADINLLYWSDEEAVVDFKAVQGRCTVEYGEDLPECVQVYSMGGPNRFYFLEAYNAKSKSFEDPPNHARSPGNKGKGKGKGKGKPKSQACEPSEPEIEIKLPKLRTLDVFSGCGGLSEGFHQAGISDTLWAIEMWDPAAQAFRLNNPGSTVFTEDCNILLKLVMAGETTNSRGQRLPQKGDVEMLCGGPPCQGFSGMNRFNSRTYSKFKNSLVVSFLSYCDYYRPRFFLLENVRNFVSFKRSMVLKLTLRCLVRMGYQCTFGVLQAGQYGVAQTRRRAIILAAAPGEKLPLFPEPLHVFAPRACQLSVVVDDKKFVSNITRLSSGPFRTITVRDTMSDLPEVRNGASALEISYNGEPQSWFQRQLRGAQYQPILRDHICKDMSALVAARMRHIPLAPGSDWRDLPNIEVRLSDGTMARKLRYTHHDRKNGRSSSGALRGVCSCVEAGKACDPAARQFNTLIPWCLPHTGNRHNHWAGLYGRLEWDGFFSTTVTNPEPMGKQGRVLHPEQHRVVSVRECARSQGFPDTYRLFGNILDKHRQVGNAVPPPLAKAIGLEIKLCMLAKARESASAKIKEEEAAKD
Chain of Mitogen-activated protein kinase kinase kinase 9 (Homo sapiens) (P80192 whole entry, looked up): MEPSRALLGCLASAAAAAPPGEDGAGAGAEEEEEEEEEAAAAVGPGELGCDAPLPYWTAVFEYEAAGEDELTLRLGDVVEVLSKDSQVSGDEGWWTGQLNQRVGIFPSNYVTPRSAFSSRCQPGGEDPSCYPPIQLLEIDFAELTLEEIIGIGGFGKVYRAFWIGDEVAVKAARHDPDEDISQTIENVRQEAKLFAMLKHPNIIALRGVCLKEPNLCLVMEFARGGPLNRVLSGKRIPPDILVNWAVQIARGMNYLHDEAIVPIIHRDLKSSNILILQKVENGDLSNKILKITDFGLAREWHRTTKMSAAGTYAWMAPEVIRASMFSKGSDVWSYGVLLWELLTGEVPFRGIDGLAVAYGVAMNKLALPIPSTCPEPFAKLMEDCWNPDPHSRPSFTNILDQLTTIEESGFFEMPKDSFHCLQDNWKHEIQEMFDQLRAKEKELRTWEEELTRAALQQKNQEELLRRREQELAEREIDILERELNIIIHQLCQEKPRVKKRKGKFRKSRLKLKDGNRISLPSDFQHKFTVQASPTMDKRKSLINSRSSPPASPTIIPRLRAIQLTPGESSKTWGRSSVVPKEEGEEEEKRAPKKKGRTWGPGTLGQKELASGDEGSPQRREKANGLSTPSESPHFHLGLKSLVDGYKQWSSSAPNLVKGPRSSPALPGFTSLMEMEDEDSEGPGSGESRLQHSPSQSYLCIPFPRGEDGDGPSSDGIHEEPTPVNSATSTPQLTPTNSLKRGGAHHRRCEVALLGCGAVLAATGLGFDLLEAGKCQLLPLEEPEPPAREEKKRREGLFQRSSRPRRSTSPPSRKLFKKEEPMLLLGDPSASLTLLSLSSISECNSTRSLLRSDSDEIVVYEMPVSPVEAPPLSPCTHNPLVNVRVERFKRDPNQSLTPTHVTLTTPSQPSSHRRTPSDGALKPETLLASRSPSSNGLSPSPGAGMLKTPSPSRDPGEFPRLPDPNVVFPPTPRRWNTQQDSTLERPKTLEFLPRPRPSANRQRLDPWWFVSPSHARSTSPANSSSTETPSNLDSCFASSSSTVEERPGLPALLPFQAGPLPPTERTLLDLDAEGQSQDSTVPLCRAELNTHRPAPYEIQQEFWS
Chain of Serine/threonine-protein kinase 38-like (Homo sapiens) (Q9Y2H1 2-464 limits assumed): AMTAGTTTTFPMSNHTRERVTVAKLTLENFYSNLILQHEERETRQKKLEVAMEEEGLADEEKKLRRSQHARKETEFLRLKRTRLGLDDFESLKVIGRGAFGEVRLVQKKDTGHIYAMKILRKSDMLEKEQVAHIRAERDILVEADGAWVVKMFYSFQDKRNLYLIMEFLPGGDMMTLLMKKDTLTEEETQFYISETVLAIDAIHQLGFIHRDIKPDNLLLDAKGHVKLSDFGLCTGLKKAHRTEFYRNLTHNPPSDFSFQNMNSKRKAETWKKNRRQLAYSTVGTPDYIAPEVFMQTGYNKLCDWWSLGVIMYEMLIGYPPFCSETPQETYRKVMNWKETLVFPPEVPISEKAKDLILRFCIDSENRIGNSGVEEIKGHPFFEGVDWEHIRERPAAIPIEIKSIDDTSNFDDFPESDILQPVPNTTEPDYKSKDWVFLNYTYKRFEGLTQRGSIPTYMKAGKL
Chain of High affinity nerve growth factor receptor (P04629 33-796 limits assumed): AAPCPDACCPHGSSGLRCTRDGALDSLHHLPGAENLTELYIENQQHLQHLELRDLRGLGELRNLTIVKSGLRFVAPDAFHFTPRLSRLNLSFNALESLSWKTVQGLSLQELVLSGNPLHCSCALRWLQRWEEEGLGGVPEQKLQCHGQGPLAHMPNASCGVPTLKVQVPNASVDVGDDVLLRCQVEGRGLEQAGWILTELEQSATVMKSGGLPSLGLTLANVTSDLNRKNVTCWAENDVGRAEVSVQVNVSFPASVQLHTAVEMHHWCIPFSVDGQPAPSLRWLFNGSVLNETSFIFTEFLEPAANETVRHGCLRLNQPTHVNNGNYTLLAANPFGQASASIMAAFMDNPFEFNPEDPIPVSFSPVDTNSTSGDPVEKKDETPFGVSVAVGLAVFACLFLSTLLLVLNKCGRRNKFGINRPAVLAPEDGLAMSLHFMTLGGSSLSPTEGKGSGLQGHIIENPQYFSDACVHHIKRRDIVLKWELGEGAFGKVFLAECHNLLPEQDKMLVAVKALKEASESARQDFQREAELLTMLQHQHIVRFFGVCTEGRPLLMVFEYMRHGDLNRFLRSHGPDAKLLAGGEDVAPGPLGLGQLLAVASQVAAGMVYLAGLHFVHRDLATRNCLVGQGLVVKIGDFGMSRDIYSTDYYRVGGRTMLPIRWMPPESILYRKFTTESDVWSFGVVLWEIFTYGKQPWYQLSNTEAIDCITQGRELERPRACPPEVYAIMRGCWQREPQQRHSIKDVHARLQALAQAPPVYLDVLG
Chain of Phosphorylase b kinase gamma catalytic chain, skeletal muscle/heart isoform (Homo sapiens) (Q16816 whole entry, looked up, canonical isoform): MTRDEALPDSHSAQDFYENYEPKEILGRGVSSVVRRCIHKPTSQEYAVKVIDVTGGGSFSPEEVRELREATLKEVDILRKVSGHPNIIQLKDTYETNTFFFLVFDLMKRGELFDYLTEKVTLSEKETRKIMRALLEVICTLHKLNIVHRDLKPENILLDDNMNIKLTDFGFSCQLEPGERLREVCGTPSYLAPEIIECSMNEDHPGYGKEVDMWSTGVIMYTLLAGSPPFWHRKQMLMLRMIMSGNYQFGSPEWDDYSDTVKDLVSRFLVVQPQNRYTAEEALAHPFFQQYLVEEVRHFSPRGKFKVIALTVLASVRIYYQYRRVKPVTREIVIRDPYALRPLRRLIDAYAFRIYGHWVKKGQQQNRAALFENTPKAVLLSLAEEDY

Q: For `CN1Cc2nccc(-c3cn(C)nc3-c3ccc(F)cc3)c2C1=O`, which % of inhibition [1] is on record?
A: 15%

Q: With `O=C(NOC[C@H](O)CO)c1ccc(F)c(F)c1Nc1ccc(I)cc1F` as the compound, how does the % of control [2] read?
A: 95%

Q: `Nc1cnc(N2CCc3cc(S(=O)(=O)Nc4c(F)cc(Cl)cc4F)cc(N4CCCC4=O)c32)nc1` [TP-020n] was tested. Which % of control [3] did it give?
A: 42%

Q: Which dTM [4] does the source give for `CC(C)(O)[C@H](F)CN1Cc2cc(NC(=O)c3cnn4cccnc34)c(N3CCOCC3)cc2C1=O` here?
A: 0.1 K

Q: Which % of control [5] does the source give for `CN(C)C/C=C/C(=O)Nc1ccc(C(=O)N2CCCC(Nc3ncc(Cl)c(-c4c[nH]c5ccccc45)n3)C2)cc1` (stereo unspecified) here?
A: 87%

Q: With `COCCN1CCC(c2cc(CN(C)C(=O)c3cccc(Oc4ccccc4)c3)ccn2)CC1` as the compound, how does the % activity ([6]; at 1 µM) read?
A: > 95%

Q: What about the % activity ([6]; at 10 µM) of the same compound?
A: 79%

Q: For `C=CC(=O)Nc1cc(-n2c(=O)ccc3cnc4ccc(-c5ccc(NS(C)(=O)=O)cc5)cc4c32)ccc1C`, which % of control ([7]; at 1 µM) is on record?
A: 100%

Q: And the % of control ([7]; at 10 µM)?
A: 52%

Q: What does the source list for `CNC(=O)Nc1ccc(-c2nc(N3CC4CCC(C3)O4)c3cnn(C4CCC5(CC4)OCCO5)c3n2)cc1`?
A: % of control [8]: 100%; % of inhibition [9]: -11%
